Laboratory results taken from DBAASP.
Converted amounts (≈) assume the structure as drawn.

Tests used:
Experiment in all cases: ≥ marks a high value that may be exact or a test limit, other limits are often not marked, values filed in µg/mL are converted to µM
[1] = tested on: Escherichia coli
[2] = tested on: Bacillus cereus
[3] = tested on: Staphylococcus aureus ATCC 25923
[4] = tested on: Pseudomonas aeruginosa ATCC 9027
[5] = tested on: Klebsiella pneumoniae ATCC 700603
[6] = tested on: Acinetobacter baumannii
[7] = tested on: Escherichia coli ATCC 25922
[8] = tested on: Escherichia coli UB1005
[9] = tested on: Staphylococcus epidermidis ATCC 12228
[10] = tested on: Salmonella enterica subsp. enterica serovar Typhimurium C77-31
[11] = tested on: Staphylococcus aureus ATCC 29213
[12] = tested on: Staphylococcus aureus ATCC 6538
[13] = tested on: Acinetobacter baumannii ATCC 19606
[14] = tested on: Enterococcus faecalis ATCC 29212
[15] = tested on: Candida albicans ATCC 2002
[16] = tested on: Bacillus subtilis
[17] = tested on: Staphylococcus aureus
[18] = tested on: Pseudomonas aeruginosa

Row | Compound | MIC [3] | MIC [6] | MIC [7] | MIC [4] | MIC [12] | other results
1 | CC[C@H](C)[C@H](NC(=O)[C@H](C)NC(=O)[C@H](CO)NC(=O)[C@H](Cc1ccccc1)NC(=O)[C@@H](NC(=O)[C@H](CO)NC(=O)[C@@H]1CCCN1C(=O)[C@@H](NC(=O)[C@@H](NC(=O)[C@H](CCCCN)NC(=O)[C@H](CO)NC(=O)[C@H](C)NC(=O)[C@@H](NC(=O)CNC(=O)[C@H](Cc1ccccc1)NC(=O)[C@@H](NC(=O)[C@H](C)NC(=O)CN)C(C)C)C(C)C)C(C)C)C(C)C)C(C)C)C(=O)N[C@@H](CCCCN)C(=O)N[C@@H](CCCCN)C(=O)O [GAVFGVASKVVPSVFSAIKK] | – | – | – | – | – | MIC [1]: > 129 µM; MIC [2]: ≥ 129 µM
2 | CC(C)C[C@H](NC(=O)[C@H](CCCCN)NC(=O)[C@H](CCCCN)NC(=O)[C@H](C)NC(=O)[C@H](CC(C)C)NC(=O)[C@H](CCCCN)NC(=O)[C@H](C)NC(=O)[C@H](CC(C)C)NC(=O)[C@H](CCCCN)NC(=O)[C@H](CCCCN)NC(=O)[C@H](C)NC(=O)[C@@H](N)Cc1ccccc1)C(N)=O [FAKKLAKLAKKL] | – | – | – | 18.4 µM (≈ 25 µg/mL) | 73.6 µM (≈ 99.9 µg/mL) | –
3 | CC[C@H](C)[C@H](NC(=O)[C@H](CCCCN)NC(=O)[C@H](CCCCN)NC(=O)[C@H](CC(C)C)NC(=O)[C@H](CCCN=C(N)N)NC(=O)[C@@H]1CSSC[C@H](NC(=O)[C@H](CCCN=C(N)N)NC(=O)[C@H](CC(C)C)NC(=O)[C@H](CCCN=C(N)N)NC(=O)[C@H](CCCN=C(N)N)NC(=O)[C@H](Cc2ccccc2)NC(=O)[C@@H](N)CCCN=C(N)N)C(=O)N[C@@H](CCCCN)C(=O)N[C@@H]([C@@H](C)O)C(=O)N[C@@H](CCCN=C(N)N)C(=O)N1)C(N)=O [RFRRLRCKTRCRLKKI] | – | – | – | – | – | MIC [8]: ≥ 128 µM; MIC [14]: > 128 µM; MIC [9]: > 128 µM; MIC [10]: ≥ 128 µM; MIC [11]: > 128 µM
4 | CC[C@H](C)[C@H](NC(=O)CNC(=O)[C@H](CC(C)C)NC(=O)[C@H](CCCCN)NC(=O)[C@H](C)NC(=O)[C@H](CC(C)C)NC(=O)[C@H](C)NC(=O)[C@@H](NC(=O)[C@H](CCCCN)NC(=O)[C@H](C)NC(=O)[C@@H](NC(=O)[C@@H](N)CCCCN)[C@@H](C)CC)C(C)C)C(=O)NCC(=O)N[C@@H](C)C(=O)N[C@H](C(=O)N[C@@H](CC(C)C)C(=O)N[C@@H](CCCCN)C(=O)N[C@H](C(=O)N[C@@H](CC(C)C)C(=O)N[C@H](C(=O)N[C@H](C(=O)NCC(=O)N[C@@H](CC(C)C)C(N)=O)[C@@H](C)O)[C@@H](C)O)C(C)C)C(C)C [KIAKVALAKLGIGAVLKVLTTGL] | – | – | – | 87.8 µM (≈ 200 µg/mL) | 87.8 µM (≈ 200 µg/mL) | –
5 | CC(C)C[C@H](NC(=O)[C@H](C)NC(=O)[C@H](CCCCN)NC(=O)[C@H](CCCCN)NC(=O)[C@H](Cc1ccccc1)NC(=O)[C@H](C)NC(=O)[C@H](CCCCN)NC(=O)[C@H](C)NC(=O)[C@H](CC(C)C)NC(=O)[C@H](CC(C)C)NC(=O)[C@H](CCCCN)NC(=O)[C@H](C)NC(=O)[C@@H](N)Cc1ccccc1)C(N)=O [FAKLLAKAFKKAL] | – | – | – | 10.4 µM (≈ 15 µg/mL) | 34.5 µM (≈ 50 µg/mL) | –
6 | CC(C)[C@H](NC(=O)[C@H](CCCN=C(N)N)NC(=O)[C@H](Cc1c[nH]c2ccccc12)NC(=O)[C@H](CCCN=C(N)N)NC(=O)[C@@H](NC(=O)[C@H](CCCN=C(N)N)NC(=O)[C@H](Cc1c[nH]c2ccccc12)NC(=O)[C@H](CCCN=C(N)N)NC(=O)[C@@H](NC(=O)[C@H](CCCN=C(N)N)NC(=O)[C@@H](N)Cc1c[nH]c2ccccc12)C(C)C)C(C)C)C(=O)N[C@@H](CCCN=C(N)N)C(N)=O [WRVRWRVRWRVR] | 2 µM (≈ 3.62 µg/mL) | 2 µM (≈ 3.62 µg/mL) | 4 µM (≈ 7.24 µg/mL) | – | – | MIC [1]: 2 µM (≈ 3.62 µg/mL); MIC [17]: 1 µM (≈ 1.81 µg/mL); MIC [8]: 2 µM (≈ 3.62 µg/mL); MIC [18]: 4 µM (≈ 7.24 µg/mL); MIC [9]: 2 µM (≈ 3.62 µg/mL); MIC [10]: 4 µM (≈ 7.24 µg/mL); MIC [11]: 1 µM (≈ 1.81 µg/mL)
7 | CC(C)C[C@H](NC(=O)[C@H](CCCCN)NC(=O)[C@H](CCCCN)NC(=O)[C@H](C)NC(=O)[C@H](CC(C)C)NC(=O)[C@H](CCCCN)NC(=O)[C@H](C)NC(=O)[C@H](CC(C)C)NC(=O)[C@H](CC(C)C)NC(=O)[C@H](CCCCN)NC(=O)[C@H](C)NC(=O)[C@@H](N)Cc1ccccc1)C(N)=O [FAKLLAKLAKKL] | – | – | – | 149 µM (≈ 200 µg/mL) | 7.44 µM (≈ 9.99 µg/mL) | –
8 | CC(C)C[C@H](NC(=O)[C@H](C)NC(=O)[C@H](CCCCN)NC(=O)[C@H](C)NC(=O)[C@H](CC(C)C)NC(=O)[C@H](CCCCN)NC(=O)[C@H](CCCCN)NC(=O)[C@H](C)NC(=O)[C@H](CC(C)C)NC(=O)[C@H](CCCCN)NC(=O)[C@H](CCCCN)NC(=O)[C@H](C)NC(=O)[C@@H](N)Cc1ccccc1)C(N)=O [FAKKLAKKLAKAL] | – | – | – | 3.5 µM (≈ 5 µg/mL) | 10.5 µM (≈ 15 µg/mL) | –
9 | CSCC[C@H](NC(=O)[C@H](CC(C)C)NC(=O)[C@H](CCCCN)NC(=O)CNC(=O)[C@H](C)NC(=O)[C@H](C)NC(=O)[C@H](CCCN=C(N)N)NC(=O)[C@H](Cc1ccccc1)NC(=O)[C@H](CC(C)C)NC(=O)[C@@H](NC(=O)[C@H](Cc1c[nH]c2ccccc12)NC(=O)[C@@H](NC(=O)[C@@H](N)CCCCN)C(C)C)[C@@H](C)O)C(=O)N[C@@H](C)C(=O)N[C@@H](CCCCN)C(N)=O [KVWTLFRAAGKLMAK] | > 25 µM | 25 µM (≈ 43 µg/mL) | > 25 µM | > 25 µM | – | MIC [5]: > 25 µM

More lines, main results first:

Row | MIC [3] | MIC [6] | MIC [7] | Compound | MIC [4] | MIC [12] | other results
10 | 64 µM (≈ 113 µg/mL) | ≥ 32 µM | 64 µM (≈ 113 µg/mL) | CC[C@H](C)[C@H](N)C(=O)N[C@H](C(=O)N[C@@H](CCCCN)C(=O)N[C@@H](Cc1c[nH]c2ccccc12)C(=O)N[C@@H](CC(C)C)C(=O)N[C@@H](CC(C)C)C(=O)N[C@@H](CC(N)=O)C(=O)N[C@@H](C)C(=O)N[C@H](C(=O)N[C@@H](CCCCN)C(=O)N[C@@H](CCCCN)C(=O)NCC(=O)N[C@@H](Cc1ccccc1)C(=O)N[C@@H](CCCCN)C(=O)N[C@@H](CC(C)C)C(=O)O)[C@@H](C)CC)[C@@H](C)O [ITKWLLNAIKKGFKL] | 64 µM (≈ 113 µg/mL) | – | MIC [5]: 64 µM (≈ 113 µg/mL)
11 | 2 µM (≈ 5.61 µg/mL) | – | 2 µM (≈ 5.61 µg/mL) | CC[C@H](C)[C@H](NC(=O)[C@H](Cc1c[nH]c2ccccc12)NC(=O)[C@H](CCCCN)NC(=O)[C@H](CC(C)C)NC(=O)[C@@H](NC(=O)[C@H](CCCCN)NC(=O)CNC(=O)[C@@H](NC(=O)[C@@H](NC(=O)[C@H](CCCCN)NC(=O)[C@H](CC(C)C)NC(=O)[C@@H](NC(=O)[C@@H](NC(=O)[C@H](CCCN=C(N)N)NC(=O)[C@@H](NC(=O)[C@@H](NC(=O)[C@H](CCCCN)NC(=O)[C@H](CCCN=C(N)N)NC(=O)[C@H](CC(C)C)NC(=O)[C@@H](NC(=O)[C@H](CCCN=C(N)N)NC(=O)[C@H](Cc1ccccc1)NC(=O)[C@@H](NC(=O)CN)C(C)C)C(C)C)C(C)C)[C@@H](C)O)C(C)C)C(C)C)C(C)C)[C@@H](C)CC)C(C)C)C(N)=O [GVFRVLRKVTRVVLKVIGKVLKWI] | – | – | MIC [8]: 4 µM (≈ 11.2 µg/mL); MIC [9]: 2 µM (≈ 5.61 µg/mL); MIC [10]: 4 µM (≈ 11.2 µg/mL); MIC [11]: 2 µM (≈ 5.61 µg/mL)
12 | – | 6.42 µM (≈ 20 µg/mL) | – | CC[C@H](C)[C@H](NC(=O)[C@H](CCCN=C(N)N)NC(=O)[C@@H](NC(=O)[C@@H](NC(=O)[C@@H]1CCCN1C(=O)[C@@H](NC(=O)[C@@H](NC(=O)[C@@H](NC(=O)[C@@H]1CCCN1C(=O)CNC(=O)[C@H](Cc1ccc(O)cc1)NC(=O)[C@H](CCCCN)NC(=O)[C@H](CCCCN)NC(=O)[C@H](Cc1c[nH]c2ccccc12)NC(=O)[C@H](C)NC(=O)[C@H](CCCN=C(N)N)NC(=O)[C@H](CC(C)C)NC(=O)[C@@H](NC(=O)[C@H](CCCCN)NC(=O)[C@H](CCCN=C(N)N)NC(=O)CNC(=O)[C@H](CC(C)C)NC(=O)[C@H](CCCCN)NC(=O)[C@H](CCCN=C(N)N)NC(=O)[C@H](CC(C)C)NC(=O)CNC(=O)CN)[C@@H](C)CC)[C@@H](C)CC)[C@@H](C)CC)C(C)C)[C@@H](C)CC)[C@@H](C)CC)C(=O)O [GGLRKLGRKILRAWKKYGPIIVPIIRI] | – | – | MIC [13]: 3.21 µM (≈ 10 µg/mL)
13 | 0.447 µM (≈ 1.17 µg/mL) | – | 10.7 µM (≈ 28.1 µg/mL) | CC[C@H](C)[C@H](NC(=O)[C@H](C)NC(=O)[C@H](CCCN=C(N)N)NC(=O)[C@H](Cc1ccc(O)cc1)NC(=O)[C@H](CC(C)C)NC(=O)[C@H](CC(N)=O)NC(=O)[C@H](Cc1ccc(O)cc1)NC(=O)CNC(=O)[C@H](C)NC(=O)[C@@H](NC(=O)[C@@H](NC(=O)[C@@H](NC(=O)[C@H](CCCN=C(N)N)NC(=O)[C@@H](NC(=O)[C@@H](NC(=O)[C@@H](NC(=O)[C@@H]1CCCN1C(=O)[C@H](Cc1c[nH]c2ccccc12)NC(=O)[C@@H](N)Cc1ccccc1)C(C)C)C(C)C)[C@@H](C)CC)[C@@H](C)O)C(C)C)C(C)C)C(=O)N[C@@H](CCCCN)C(=O)N[C@@H](CCCCN)C(=O)N[C@@H](CCCCN)C(=O)O [FWPVVIRTVVAGYNLYRAIKKK] | – | – | MIC [15]: 0.335 µM (≈ 0.879 µg/mL); MIC [16]: 1.34 µM (≈ 3.52 µg/mL)
